Measured values as given in publication PMC9350523 (Dose-Response, 2022).
Ends that are not written are not given here.

Experiments:
[1] = tested on: glutamine synthetase 2 (GS2); settings: cited from earlier work
human PCNA = human PCNA (Homo sapiens, UniProt P12004); test: Fluorescence anisotropy competition: displacement of 50 nM PL peptide from PCNA; type: binding; settings: for f (hormesis parameter): f not different from 0 (95% confidence interval), no significant hormesis
BRAF = settings: cited from earlier work
[2] = GS2 from chloroplasts of Lotus corniculatus
[3] = UNG2(a.a.1-19) competitor, .25 μM PCNA, hormetic curve

Chain of human PCNA (P12004 whole entry): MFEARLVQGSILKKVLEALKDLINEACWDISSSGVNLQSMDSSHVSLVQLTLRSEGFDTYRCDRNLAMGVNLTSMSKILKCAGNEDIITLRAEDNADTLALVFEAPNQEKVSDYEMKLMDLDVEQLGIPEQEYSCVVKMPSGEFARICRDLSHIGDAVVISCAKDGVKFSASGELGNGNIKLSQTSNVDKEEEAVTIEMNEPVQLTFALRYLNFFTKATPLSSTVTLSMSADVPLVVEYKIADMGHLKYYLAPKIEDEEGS

For `CS(=N)(=O)CC[C@H](N)C(=O)O` (stereo partly shown) [methionine sulfoximine], the mode of inhibition ([1]; GS2) is given as “competitive with glutamate and a somewhat irreversible inhibitor”, the “GS2 activity at high methionine sulfoximine doses” value [1, 2] is given as “completely inhibit the enzyme” and the “GS2 activity at low methionine sulfoximine concentrations” value [1, 2] is given as “allosteric stimulatory effect on other subunits of the octamer”.

For MIGQKTLYSFFSPSPARKR [UNG2(a.a.1-19)], the “b (slope parameter)” value (human PCNA; UNG2(a.a.1-19) competitor, 1 μM PCNA, 50 nM PL peptide, hormetic curve) was 1.497, the “b (slope parameter)” value (human PCNA; UNG2(a.a.1-19) competitor, 1 μM PCNA, 50 nM PL peptide, standard curve) was 1.143 and the “f (hormesis parameter)” value (human PCNA; UNG2(a.a.1-19) competitor, 1 μM PCNA, hormetic curve) was “.0044^ c”. The “b (slope parameter)” value (human PCNA; UNG2(a.a.1-19) competitor, .25 μM PCNA, 50 nM PL peptide, hormetic curve) was 2.798, the “b (slope parameter)” value (human PCNA; UNG2(a.a.1-19) competitor, .25 μM PCNA, 50 nM PL peptide, standard curve) was 3.423 and the “c (lower asymptote)” value (human PCNA; [3]) was “.0572”. For the same compound, the “f (hormesis parameter)” value (human PCNA; [3]) was “.0013^ c”, the “displacement / hormetic response” value (human PCNA; UNG2(a.a.1-19), .25 and 1 μM PCNA, 50 nM PL peptide) was “displaced PL peptide from PCNA without a hormetic response” and the “control: PL peptide anisotropy in the absence of PCNA” value (human PCNA; competitor included in the cuvette without PCNA) was “the fluorescence anisotropy of PL peptide was unchanged”.

In the case of `CC(C)(C)c1nc(-c2cccc(NS(=O)(=O)c3c(F)cccc3F)c2F)c(-c2ccnc(N)n2)s1` [dabrafenib], the mode of inhibition (BRAF) is given as “competitive with ATP”.
